Earlier results on one molecule are cited in patent publication US7732395B2, “Water-stabilized antimicrobial organosilane products, compositions, and methods for using the same” (Vitec Specialty Chemicals Ltd., priority 2006, dated 2010).

The conditions of this data set: prior art.

Regarding `CCCCCCCCCCCCCCCCCC[N+](C)(C)CCC[Si](OC)(OC)OC.[Cl-]` [3-(trimethoxysilyl)propyl-dimethyloctadecyl ammonium chloride], the “time after which the mixture with water begins to lose effectiveness” value was “four to eight”.
